Measurements as given in patent publication US9539327B2, “Small molecule cancer treatments that cause necrosis in cancer cells but do not affect normal cells” (THE RESEARCH FOUNDATION FOR THE STATE UNIVERSITY OF NEW YORK, priority 2007, dated 2017).
Ends that are not written are not given here.

Columns and labels:
[1] = tested on: MiaPaCa-2, Hu-Melanoma cells, BMRPA1.TUC-3 cells; experiment: Dose-response cytotoxicity by LDH release, cancer cells (FIG. 13 A-C); format: cell-based; details: 1-500 micrograms/ml; 30 min at 37° C.; tumor cells
Experimental: (§1) FIG. 13, graphs A through D, depict the results of dose-response experiments completed on three difference cancer cell samples and one normal primary human cell line to treatment in vitro with PNC-27 (from 1-500 micrograms/ml). The cancer cell lines were human pancreatic cancer, MiaPaCa-2 (upper left, A), Hu-Melanoma cells (upper right, B), and a rodent tumor cell line, i.e., pancreatic cancer BMRPA1.TUC-3 cells (lower left, C). As controls, cells from the same cell lines were tested in parallel with a control peptide, PNC-29, over the same range of peptide concentrations. As another control, cells from primary human Ag 13145 fibroblasts (lower right, D) were treated with the same doses of PNC-27 and PNC-29, respectively.
(§2) The results are plotted along with those for PNC-29, the negative control. […] The measurements of cytotoxicity were performed by assaying for LDH in the cell supernatant.
(§3) For the dose response experiments (n=3-5), 0.1 ml of each of the cells (70,000 cells/ml of culture medium) were seeded into each of the wells of 96-well TCD (7000 cells/well) and allowed to adhere overnight. […] The results were read at OD490 nm in an ELISA plate reader within 15 min of stopping the color development in the wells. The results were calculated as advised by the manufacturers guidelines (CytoTox 96 Non-radioactive Cytotoxicity Assay, Promega), and the data were expressed in % Cytotoxicity.

non-cancerous cells = experiment: Untransformed cell lines and primary human cells incubated with peptide (FIG. 5); format: cell-based; details: Thirty microMolar; one day up to two weeks; normal rat pancreatic acinar cells, human breast cells, primary human fibroblasts, primary human keratinocytes, umbilical cord stem cells
From the text: The experimental methods which yielded the data depicted in FIG. 5 are described in sufficient detail for those skilled in the art in the following publications: • Kanovsky, M., Raffo, A., Drew, L., Rosal, R., Do, T., Friedman, F. K., Rubinstein, P., Visser, I., Robinson, R., Brandt-Rauf, […]., Fine, R. L. and Pincus, M. R. (2001) Peptides from the Amino Terminal mdm-2 Binding Domain of p53, Designed from Conformational Analysis, Are Selectively Cytotoxic to Transformed Cells. Proc. Natl. Acad. Sci. USA 98, 12438-12443; • Do, T. N., Rosal, R. V., Drew, L., Raffo, […]., Pincus, M. R., Friedman, […]., Sidhu, G., Fine, R. L. and Brandt-Rauf, P. W. (2003) Preferential Induction of Necrosis in Human Breast Cancer Cells by a p53 Peptide Derived from the mdm-2 Binding Site. Oncogene 22, 1431-1444; and • Bowne, […]., Yadzi, E., Lou, […]., Harding, M., Bluth, M. H., Ng, M., Brandt-Rauf, […]. and Pincus, M. r. (2008) The Penetrating Sequence in the Anti-Cancer PNC-28 Peptide Causes Tumor Necrosis Rather than Apoptosis of Human Pancreatic Cancer Cells. Ann. Surg. Oncol., in press. Referring to FIG. 5, the table illustrates that the cancer treatment PNC-27, when administered to non-cancerous cells, has no effect. […]

[2] = tested on: human pancreatic cancer MIA PaCa-2 cells; experiment: Transmission electron microscopy of PNC-28-treated cells (FIG. 8); format: cell-based; details: treated for 10 minutes; 50 μg/ml
Experimental: FIG. 8 depicts a photograph taken during a Transmission Electron Microscopy study of human pancreatic cancer MIA PaCa-2 cells that had been treated for 10 minutes with PNC-28. […] The middle arrow depicts an area of the cell's plasma membrane that has erupted as a result of PNC-28 acting upon it. The bottom-most arrow depicts an area on the cell's plasma membrane that is discontinuous as a result of PNC-28 administration. From one or more of these areas emphasized with arrows, the cytoplasm will begin to leak from the cell, into the surrounding medium. Extrusion of much of the cells cytoplasmic content through such holes (pores) while the nuclear membrane was still intact was a frequent finding in these and other tumor cells when the incubation period with PNC-28 was extended. Magn. ×42,600.
Cells (1×10^6) were grown in 6-well dishes overnight then spent medium was removed, the cells were washed with PBS and treated at 37° C. with PNC-28 at 50 μg/ml in PBS. At different time points (5-30 min) during the PNC-28 treatment the cells were washed and fixed in 3% buffered paraformaldehyde supplemented with 0.01% glutaraldehyde for 1.5 h. After extensive washing, the cells were treated with glycine and NaBH4 as described above followed by 3 times washing in PBS. […]

[3] = tested on: primary human Ag 13145 fibroblasts; experiment: Dose-response cytotoxicity by LDH release, normal fibroblasts (FIG. 13 D); format: cell-based; details: same dose range as applied to tumor cells (1-500 micrograms/ml); 30 min at 37° C.
Experimental: as §1, §2, §3

Compound: CC[C@H](C)[C@H](NC(=O)[C@H](CCCNC(=N)N)NC(=O)[C@H](CCCCN)NC(=O)CNC(=O)[C@@H](NC(=O)[C@H](CO)NC(=O)[C@H](Cc1ccccc1)NC(=O)[C@@H]1CCCN1C(=O)[C@@H](N)CCSC)[C@@H](C)O)C(=O)N[C@@H](CCSC)C(=O)N[C@@H](CC(C)C)C(=O)NCC(=O)N[C@@H](CCC(=O)O)C(=O)N[C@@H](CCCCN)C(=O)N[C@@H](CCCCN)C(=O)N[C@@H](Cc1c[nH]c2ccccc12)C(=O)N[C@@H](CCCCN)C(=O)N[C@@H](CCSC)C(=O)N[C@@H](CCCNC(=N)N)C(=O)N[C@@H](CCCNC(=N)N)C(=O)N[C@@H](CC(N)=O)C(=O)N[C@@H](CCC(N)=O)C(=O)N[C@@H](Cc1ccccc1)C(=O)N[C@@H](Cc1c[nH]c2ccccc12)C(=O)N[C@H](C(=O)N[C@@H](CCCCN)C(=O)N[C@H](C(=O)N[C@@H](CCC(N)=O)C(=O)N[C@@H](CCCNC(=N)N)C(=O)NCC(=O)O)C(C)C)C(C)C [PNC-29, reference compound]
- cytotoxicity (LDH in the cell supernatant) [1]: absence of any effect

Compound: ETFSDLWKLLKKWKMRRNQFWVKVQRG (PNC-28) [p53 AA 17-26 attached to the membrane resident peptide (MRP)]
- effect on non-cancerous cells (non-cancerous cells): no measurable effect
- plasma membrane change (TEM) [2]: needle-shaped pore has formed in the cancer cell plasma membrane

Compound: PPLSQETFSDLWKLLKKWKMRRNQFWVKVQRG [PNC-27]
- cytotoxicity (LDH in the cell supernatant) [1]: strong dose dependency
- cytotoxicity (LDH in the cell supernatant) [3]: no effect
- IC50 (Cancer cells): 125 µg/mL
